Laboratory results: PubChem BioAssay (NCI)
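How tested: cells in 96-well plates exposed to compound for 48 hours at five concentrations. GI50: concentration for 50% inhibition of growth. TGI marks complete inhibition of growth.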

Columns and labels:
Experiment in all cases: NCI anticancer screen, dose series, 48 h
NCI-H226 lung = tested on: NCI-H226 lung
NCI-H23 lung = tested on: NCI-H23 lung
NCI-H460 lung = tested on: NCI-H460 lung
NCI-H522 lung = tested on: NCI-H522 lung
NCI/ADR-RES ovarian = tested on: NCI/ADR-RES ovarian
OVCAR-3 ovarian = tested on: OVCAR-3 ovarian
OVCAR-4 ovarian = tested on: OVCAR-4 ovarian
OVCAR-5 ovarian = tested on: OVCAR-5 ovarian
OVCAR-8 ovarian = tested on: OVCAR-8 ovarian
PC-3 prostate = tested on: PC-3 prostate
RPMI-8226 leukemia = tested on: RPMI-8226 leukemia
SF-268 CNS = tested on: SF-268 CNS
SF-295 CNS = tested on: SF-295 CNS
SF-539 CNS = tested on: SF-539 CNS
SK-MEL-2 melanoma = tested on: SK-MEL-2 melanoma
SK-MEL-28 melanoma = tested on: SK-MEL-28 melanoma
SK-MEL-5 melanoma = tested on: SK-MEL-5 melanoma
SK-OV-3 ovarian = tested on: SK-OV-3 ovarian
SN12C renal = tested on: SN12C renal
SNB-19 CNS = tested on: SNB-19 CNS
SNB-75 CNS = tested on: SNB-75 CNS
SR leukemia = tested on: SR leukemia
SW-620 colon = tested on: SW-620 colon
T-47D breast = tested on: T-47D breast
TK-10 renal = tested on: TK-10 renal
U251 CNS = tested on: U251 CNS
UACC-257 melanoma = tested on: UACC-257 melanoma
UACC-62 melanoma = tested on: UACC-62 melanoma
UO-31 renal = tested on: UO-31 renal

SMILES: Cc1oc(-c2ccccc2)nc1CN[C@@H]1C[C@@H]2C[C@H]([C@H]1C)C2(C)C
- GI50 (NCI-H226 lung): 8.99 µM
- TGI (NCI-H226 lung): 25 µM
- GI50 (NCI-H23 lung): 12.8 µM
- TGI (NCI-H23 lung): 25.9 µM
- GI50 (NCI-H460 lung): 6.32 µM
- TGI (NCI-H460 lung): 20.3 µM
- GI50 (NCI-H522 lung): 12.7 µM
- TGI (NCI-H522 lung): 28.4 µM
- GI50 (NCI/ADR-RES ovarian): 12.7 µM
- TGI (NCI/ADR-RES ovarian): 25.5 µM
- GI50 (OVCAR-3 ovarian): 12.7 µM
- TGI (OVCAR-3 ovarian): 25.6 µM
- GI50 (OVCAR-4 ovarian): 11.4 µM
- TGI (OVCAR-4 ovarian): 25.8 µM
- GI50 (OVCAR-5 ovarian): 7.9 µM
- TGI (OVCAR-5 ovarian): 20.6 µM
- GI50 (OVCAR-8 ovarian): 14.1 µM
- TGI (OVCAR-8 ovarian): 31.8 µM
- GI50 (PC-3 prostate): 7.17 µM
- TGI (PC-3 prostate): 23.1 µM
- GI50 (RPMI-8226 leukemia): 3.82 µM
- TGI (RPMI-8226 leukemia): 19.2 µM
- GI50 (SF-268 CNS): 11.6 µM
- TGI (SF-268 CNS): 25.7 µM
- GI50 (SF-295 CNS): 15.6 µM
- TGI (SF-295 CNS): 29.1 µM
- GI50 (SF-539 CNS): 12.5 µM
- TGI (SF-539 CNS): 25 µM
- GI50 (SK-MEL-2 melanoma): 14.5 µM
- TGI (SK-MEL-2 melanoma): 28.4 µM
- GI50 (SK-MEL-28 melanoma): 7.59 µM
- TGI (SK-MEL-28 melanoma): 20.3 µM
- GI50 (SK-MEL-5 melanoma): 3.32 µM
- TGI (SK-MEL-5 melanoma): 11.9 µM
- GI50 (SK-OV-3 ovarian): 16.8 µM
- TGI (SK-OV-3 ovarian): 32.3 µM
- GI50 (SN12C renal): 10.5 µM
- TGI (SN12C renal): 22.5 µM
- GI50 (SNB-19 CNS): 14.2 µM
- TGI (SNB-19 CNS): 27.3 µM
- GI50 (SNB-75 CNS): 13.2 µM
- TGI (SNB-75 CNS): 26.6 µM
- GI50 (SR leukemia): 10.6 µM
- TGI (SR leukemia): 36.7 µM
- GI50 (SW-620 colon): 11.4 µM
- TGI (SW-620 colon): 24.5 µM
- GI50 (T-47D breast): 4.42 µM
- TGI (T-47D breast): 21.4 µM
- GI50 (TK-10 renal): 15.4 µM
- TGI (TK-10 renal): 31.5 µM
- GI50 (U251 CNS): 7.61 µM
- TGI (U251 CNS): 22.8 µM
- GI50 (UACC-257 melanoma): 7.95 µM
- TGI (UACC-257 melanoma): 21.4 µM
- GI50 (UACC-62 melanoma): 12.5 µM
- TGI (UACC-62 melanoma): 25 µM
- GI50 (UO-31 renal): 4.65 µM
- TGI (UO-31 renal): 18.8 µM
